According to patent US11248016B2, “Glycolipids and pharmaceutical compositions thereof for use in therapy” (THE UNIVERSITY OF NOTTINGHAM, priority 2014, dated 2022):

Tests used:
[1] = tested on: A549 lung carcinoma cells; test: Cell proliferation, A549 (WST-1 / MTT); type: cell-based; conditions: for sensitisation of A549 cells to low dose cisplatin: range of doses with range of doses of Cisplatin, FIG. 14; for sensitisation of A549 cells to low dose cisplatin / growth of A549 cells: 96 hrs; for growth of A549 cells: range of doses, dose dependant manner, FIG. 13
Protocol: Cisplatin™ resistant A549 lung cancer cells were sensitised to treatment with a compound of Formula II in combination with 1 μM Cisplatin™—a complete kill is achieved at higher doses of a compound of Formula II.
Cells were treated with a range of doses of active for either 48 or 96 hrs. Each data point is representaive of at least 4 biological repetitions.
Cells were treated with either 2 μM Cisplatin™ alone, c. 1 μg active alone or c. 1 μg active in combination with 2 μM Cisplatin™. A WST-1 cell proliferation assay was performed 96 hrs after treatment. Experiment represents 4 independent biological repetitions.
A WST-1 cell proliferation assay was performed 72 hrs after treatment. Experiment represents 4 independent biological repetitions.
Cells were treated with either 2 μM or 10 μM Cisplatin™ alone, or 10 μg synthetic molecule Formula II in combination with 2 μM Cisplatin™. A WST-1 cell proliferation assay was performed 72 hrs after treatment. Experiment represents 4 independent biological repetitions. A 5-fold increase in the efficacy of Cisplatin™ is observed when treated in combination with the synthetic Formula II.
Cells were treated with either 2 μM, 5 μM or 10 μM Cisplatin™ alone, 50 μg synthetic acetyl derivative molecule or 30 μg in combination with 2 μM Cisplatin™. A WST-1 cell proliferation assay was performed 72 hrs after treatment. Experiment represents four independent biological repetitions. No effect was detected after treatment with 50 μg synthetic acetyl derivative, however an 8-fold increase in the efficacy of Cisplatin™ is observed when treated in combination with 30 μg synthetic acetyl derivative and […] Cisplatin™.
FIG. 11—Natural molecule plus cisplatin compared to Hippuristanol plus cisplatin. […] The ratio between anti-proliferative activity to chemo sensitizing activity is also equivalent.
FIG. 13—Dose curves of compounds 46, 99 and 123. […] Cells were treated with a range of doses of active for 96 hrs. Each data point is representative of at least 4 biological repetitions and error=s.e.m).
FIG. 14—Cisplatin™ combination experiments—Compounds 46, 99 and 123. […] Cells were treated with a range of doses of active in combination with a range of doses of Cisplatin™ for 96 hrs. Each data point is representative of at least 4 biological repetitions and error=s.e.m).
(§1) Prior to treatment cells were cultured to an appropriate confluency in 96 well tissue culture plates (Fisher). Cells remained either supplemented with fresh media or treated with fresh media containing active or an equivalent volume of DMSO (vehicle control). Where used, Cisplatin™ was diluted to a stock concentration in Dimethylformamide (DMF), then handled as per the manufacturer's instructions. To determine relative cell viability, reagents WST-1 (Roche) or MTT (Sigma) were used as per the manufacturer's instructions and absorbance at 450 nm measured using a Victor plate reader (Perkin Elmer).

NLGN1 5′UTR = test: NLGN translation reporter assay, neuroligin 1; type: cell-based, human; conditions: FIG. 5: 1 μM Hippuristanol, 1.3 μM compound; FIG. 10: compound 46
Protocol: (§2) The mechanism of action and level of activity of Formula II are consistent with and comparative to a proven translational inhibitor extracted from a rare coral species (Hippuristanol—a proven inhibitor of eIf4A). In this experiment 1 μM of Hippuristanol and 1.3 μM of Formula I was used
(§3) FIG. 10—Compound 46, NLGN Translation reporter assay.
Direct evidence is provided that inhibiting eIF4A represents a new route to treating ASD based on the data presented by Gkogkas et al. Nature 2013, 493:371-7.
Treatment with the compound of Formula II (and compound 46) (FIG. 5 and FIG. 10) selectively decrease the firefly luciferase signal from a reporter construct containing the NLGN1 5′UTR upstream of a firefly luciferase gene. The translation of luciferase reporters downstream of the NLGN1 5′UTR has been proven to be dependent on the activity of the translation initiation complex eIF4F (Gkogkas et al Nature 2013, 493:371-7)—a complex containing the helicase eIF4A. Equivalent treatment had little effect on the signal generated from either a co-transfected renilla luciferase reporter control or cells transfected with an equivalent construct containing the NLGN2 5′UTR upstream of a firefly luciferase gene (FIG. 5 and FIG. 10).
Experiments conducted using Firefly luciferase reporter plasmids containing the 5′ untranslated regions (UTRs) of the genes amyloid precursor protein (APP), thioredoxin (TXN) were conducted with reagents and materials described by Bottley et al, 2010. Experiments conducted using Firefly luciferase reporter plasmids containing the 5′ UTRs of the genes EGFR, BACE1 and Actin were conducted with reagents and materials described by Webb, 2012 (http://etheses.nottingham.ac.uk/2724/). […]
(§4) Cells were transfected using FuGene 6 (Roche) following the manufacturer's instructions. The activities of firefly and renilla luciferase in lysates prepared from transfected cells were measured using a commercially available Luciferase reporter assay system (Promega) and light emission was measured over a 10 sec interval using a TECAN luminometer. […]

NLGN2 5′UTR = test: NLGN translation reporter assay, neuroligin 2; type: cell-based, human; conditions: equivalent treatment; FIG. 5 and FIG. 10
Protocol: as §2, §3
Treatment with the compound of Formula II (and compound 46) (FIG. 5 and FIG. 10) selectively decrease the firefly luciferase signal from a reporter construct containing the NLGN1 5′UTR upstream of a firefly luciferase gene. The translation of luciferase reporters downstream of the NLGN1 5′UTR has been proven to be dependent on the activity of the translation initiation complex eIF4F (Gkogkas et al Nature 2013, 493:371-7)—a complex containing the helicase eIF4A. […]
as §4

HCMV = conditions: cited from earlier work
[2] = tested on: firefly luciferase translation reporter; test: Firefly luciferase translation reporter assay; type: cell-based, human; conditions: Hippuristanol (1 μM) alone, 4 hrs; FIG. 3c
Description: Graphs represent 4 biological repetitions per treatment—2 independent treatments of a compound of Formula II.
Graphs represent 4 biological repetitions per treatment. […] No difference is observed between Hippuristanol and Hippuristanol plus a compound of Formula II.
The degree of translation inhibition is shown to be equivalent to that of a known inhibitor of translation, hippuristanol (FIGS. 3b and 5). Comparative structured 5′UTR firefly luciferase reporter experiments conducted using either hippuristanol or a compound of Formula II show the inhibition of reporter levels is equivalent.
Cells were transfected using FuGene 6 (Roche) following the manufacturer's instructions. The activities of firefly and renilla luciferase in lysates prepared from transfected cells were measured using a commercially available Luciferase reporter assay system (Promega) and light emission was measured over a 10 sec interval using a TECAN luminometer. For each experiment described, data was obtained from a minimum of at least 3 biological repetitions per treatment.

three Gag isoforms = conditions: increasing amounts, dose-response; cited from earlier work
[3] = tested on: primary canine histocytic sarcoma tumour cells; test: Primary canine tumour cell experiments; type: cell-based, dog; conditions: single dose Cisplatin (10 μM), 6 days
Protocol: Cells were cultured for 6 days with a single dose treatment of Cisplatin™ (10 μM) or a combination of Cisplatin™ plus a compound of Formula II (active). Images were taken after 6 days treatment and are representative of three independently treated wells. Each image (40× magnification) represents the majority of the well area and is of an equivalent area in each photograph.
Known inhibitors of protein synthesis such as hippuristanol have proven potent anti-cancer properties when used in combination with chemotherapeutic agents such as Cisplatin™ or Doxorubicin™. However hippuristanol is naturally found in coral to is scarce and expensive to obtain, furthermore it is very difficult and expensive to synthesise. […] In particular this combination has a potent effect at slowing proliferation or killing cancer cells. Slow growing and difficult to treat tumour cell types such as A549 lung cancer cells, SH-SY5Y neuroblastoma or SKOV-3 cancer cells are all sensitised by exposure to Formula II to very low doses of Cisplatin™ (FIGS. 4d, 4e, 4f and 7)—a complete kill can be achieved in both A549 and SH-SY5Y cells after a single dose treatment with g quantities of a compound of Formula II in combination with 1 μM or 2.5 μM treatments of Cisplatin™. […]

[4] = tested on: SKOV3 ovarian cancer cells; test: Cell proliferation, SKOV3; type: cell-based; conditions: 96 hours, Cisplatin alone; FIG. 4f
Protocol: Growth of SKOV3 cell lines were slowed by the treatment with a compound of Formula II at higher doses. Experiment represents 6 biological repetitions, Error=S.E.M.
Cisplatin™ resistant SKOV-3 ovarian cancer cells were sensitised to treatment with a compound of Formula II in combination with 2.5 μM Cisplatin™ (p=0.003) (right hand bar in the figure), no effect is observed from treatment with equivalent levels of a compound of Formula II alone (left hand bar in the figure) or Cisplatin™ alone.
as §1

Which “sensitisation of A549 cells to low dose cisplatin” value [1] does the source give for `CC/C=C\C/C=C\C/C=C\CCCCCCCC(=O)OCC(COC(=O)CCCCCCC/C=C\C/C=C\C/C=C\CC)CO[C@@H]1O[C@H](CO)[C@@H](O)[C@H](O)[C@H]1O` [Compound 99] here?
The value was “sensitizes”.

What about the “growth of A549 cells” value [1] of the same compound?
The value was “inhibits the growth”.

Which “sensitisation of A549 cells to low dose cisplatin” value [1] does the source give for `CC/C=C\C/C=C\C/C=C\CCCCCCCC(=O)OC[C@H](CO[C@H]1O[C@H](CO)[C@@H](O)[C@H](O)[C@H]1O)OC(=O)CCCCCCC/C=C\C/C=C\C/C=C\CC` [Compound 123] here?
The value was “sensitizes”.

What about the “growth of A549 cells” value [1] of the same compound?
The value was “inhibits the growth”.

What does the source list for `CC/C=C\C/C=C\C/C=C\CCCCCCCC(=O)OCC(COC(=O)CCCCCCC/C=C\C/C=C\C/C=C\CC)CO[C@@H]1O[C@H](CO)[C@H](O)[C@H](O)[C@H]1O` [Compound 46]?
sensitisation of A549 cells to low dose cisplatin [1]: sensitizes; growth of A549 cells [1]: inhibits the growth; translation of NLGN1 5′UTR firefly luciferase reporter relative to neuroligin 2 (NLGN1 5′UTR): selectively inhibits the translation; signal of NLGN2 5′UTR firefly luciferase reporter (NLGN2 5′UTR): little effect

With `CC(/C=C/C(C)=C/[C@@H]1Cc2nc(cs2)[C@@H](C)C[C@@H](N)CC(=O)O[C@@H](C)C/C(C)=C/C=C\C(=O)O1)=C\CN(C)C` [Pateamine A] as the compound, how does the “replication of HCMV” value (HCMV) read?
Its value is “inhibits the replication of HCMV”.

For `C[C@H]1C[C@@]2(O[C@H]3C[C@H]4[C@@H]5CC[C@H]6C[C@H](O)CC[C@]6(C)[C@H]5[C@@H](O)C[C@]4(C)[C@H]3[C@@]2(C)O)OC1(C)C` [Hippuristanol, reference compound], which “inhibition of translation reporter” value [2] is on record?
Its value is “significant inhibition”.

And the “anti-proliferative activity on A549 cells” value ([1]; alone, FIG. 11)?
The value was “anti-proliferative”.

What about the “translation of the three Gag isoforms” value (three Gag isoforms) of the same compound?
Its value is “inhibits the translation of the three Gag isoforms”.

What about the “translation of NLGN1 5′UTR firefly luciferase reporter relative to neuroligin 2” value (NLGN1 5′UTR) of the same compound?
Its value is “selective inhibition”.

For `CC/C=C\C/C=C\C/C=C\CCCCCCCC(=O)OC[C@H](COC1OC(COC(C)=O)C(OC(C)=O)C(OC(C)=O)C1OC(C)=O)OC(=O)CCCCCCC/C=C\C/C=C\C/C=C\CC` (some centres unmarked) [acetyl derivative of Formula II], which “increase in the efficacy of Cisplatin” value ([1]; 30 μg plus 2 μM Cisplatin, WST-1, 72 hrs, FIG. 9c) is on record?
The value was 8 fold.

What about the “effect on A549 cells, compound alone” value ([1]; 50 μg alone, WST-1, 72 hrs, FIG. 9c) of the same compound?
Its value is “No effect”.

Which results are given for `N.N.[Cl][Pt][Cl]` [Cisplatin, cis-diamminedichloroplatinum(II), reference compound]?
canine tumour cells after Cisplatin only [3]: many cancer cells remain; effect on SKOV-3 cells, Cisplatin alone [4]: no effect
